Paper PMC10928712, “High Target Homology Does Not Guarantee Inhibition: Aminothiazoles Emerge as Inhibitors of Plasmodium falciparum” (ACS Infectious Diseases, 2024)

Key:
P. falciparum 3D7 [1] = assay: IDP rescue assay, P. falciparum 3D7; format: cell-based; details: Plasmodium falciparum
Description: (§1) Fidock (Columbia University). […] P. falciparum cultures were treated as described in method II. For IDP (Isoprenoids.com) rescue experiments, 125 μM IDP was added to the appropriate wells for the duration of the experiment. The well-described DXR inhibitor FSM was used as a positive control. IC50 values were calculated by nonlinear regression analysis using GraphPad Prism software. All experiments were performed at least in triplicate, and data reported represent the mean ± SD.

[2] = test system: blood-stage P. falciparum 3D7; details: Plasmodium falciparum
P. falciparum 3D7 [3] = assay: Method II growth-inhibition assay (PicoGreen, 3 days), 3D7; format: cell-based; details: Plasmodium falciparum, 3D7, method II
Description: (§2) Fidock (Columbia University).

P. falciparum NF54 [4] = assay: Method II growth-inhibition assay (PicoGreen, 3 days), NF54; format: cell-based; details: Plasmodium falciparum; chloroquine-sensitive NF54, method II
Description: as §2

[5] = test system: MEP pathway metabolites in E. coli ΔTolC; assay: LC-MS/MS profiling of MEP pathway metabolites in E. coli; details: 48 μM (10× the IC50), 2 h, pyruvate concentration drops
Description: Overnight cultures of E. coli ΔTolC were diluted 1:1000 in LB media and grown at 37 °C until reaching the mid logarithmic phase (OD600 = 0.67–7.2). […] For normalization, the OD600 was determined after 2 h of treatment with the inhibitor. Cells were pelleted by centrifugation for 5 min at 3000g at 4 °C. The supernatants were removed, and cells were washed twice with 1× PBS. The supernatants were removed, and the pellets were stored at −80 °C until analysis. […]
For pyruvate analysis from the E. coli samples, the LC separation was done on the Shimadzu Nexera II using the Poroshell 120 (Agilent, 2.7 μm, 150 × 2.1 mm) flowing at 0.5 mL/min. […] Metabolites were detected using MRM transitions that were previously optimized using standards. […] For quantification, an external standard curve was prepared using a series of standard samples containing different concentrations of metabolites and fixed concentration of the internal standard. […]

P. falciparum NF54 [6] = assay: IDP rescue assay, P. falciparum NF54; format: cell-based; details: Plasmodium falciparum
Description: as §1

[7] = test system: MEP pathway and TCA cycle metabolites in P. falciparum 3D7; assay: LC-MS/MS profiling of MEP pathway, TCA cycle, glycolytic and pentose phosphate metabolites in P. falciparum; format: cell-based, Plasmodium falciparum; details: 12 h
[8] = test system: Mycobacterium tuberculosis H37Rv strain; design: method as in PMID 36320685; details: cited from earlier work
[9] = test system: P. falciparum 3D7 MOCK cell line; assay: Growth inhibition of MOCK cell line (vector backbone only); format: cell-based; details: Plasmodium falciparum, 3D7, read-out: MOCK IC50, MOCK compared with 3D7-TPK+; single measurement; 95% CI in brackets
Description: The open reading frame (ORF) encoding 1-deoxy-D-xylulose-5-phosphate synthase (PfDXPS; PF3D7_1337200) was amplified from genomic DNA isolated from unsynchronized P. falciparum 3D7 cultures using the Platinum PCR SuperMix High Fidelity (Invitrogen). Forward and reverse primers contained restriction sites for KpnI and AvrII in sense and antisense orientation, respectively (oligonucleotides pfDXPS-Kpn1-S: […]; pfDXPSmyc-Avr2-AS: […] ). PCR products and the transfection vector pARL1a-hDHFR PfARG-GFP were digested with KpnI and AvrII, purified (Gel extraction Kit and PCR purification kit; Qiagen), and cloned into the transfection vector yielding the construct for overexpression pARL-DXS-strep. XL 10-Gold E. coli ultracompetent cells (Agilent Technologies) were transformed with the generated construct to amplify the plasmid and colonies checked using restriction analysis and sequencing of the plasmid. Bacterial clones carrying the overexpression construct and the empty pARL1a vector (MOCK plasmid) were amplified in overnight cultures, isolated (Plasmid Maxi Kit; QIAGEN), and subsequently used to transfect P. falciparum 3D7 ring-stage parasites, as already described.[59] Briefly, 120 μg of plasmid DNA was centrifuged and air-dried, and the pellet was resuspended in TE buffer and cytomix reagent and mixed with the P. falciparum culture. Parasites were transfected using electroporation and selected with WR 99210. The generation and characterization of the PfTPK overexpression cell line has been reported before.[60]
P. falciparum cultures were treated as described in method I. For target specification toward PfTPK and PfDXPS, compounds were tested in comparison against overexpressing cell lines and the respective MOCK line containing only the transfected vector backbone. Parasite viability/proliferation was determined.

P. falciparum 3D7 [10] = assay: Method III growth inhibition assay (HRP2-ELISA, 3 days), 3D7; format: cell-based, Plasmodium falciparum; details: Plasmodium falciparum, 3D7, 3D7, method III (HRP2 assay), drc package of R; read-out: IC50 P. falciparum 3D7 (method III)
P. falciparum Dd2 = assay: Method III growth inhibition assay (HRP2-ELISA, 3 days), Dd2; format: cell-based, Plasmodium falciparum; details: Plasmodium falciparum, DD2, chloroquine-resistant Dd2, method III
M. tuberculosis DXPS = molecular target: M. tuberculosis DXPS; design: method as in PMID 36320685; details: Morrison inhibition constant, slow-, tight-binding; read-out: Ki* MtDXPS; cited from earlier work
[11] = Metabolic stability in human liver S9 fraction; format: in vitro ADME; details: human, pooled liver S9 fraction, 1 μM compound
Description: For the evaluation of combined phase I and phase II metabolic stability, the compound (1 μM) was incubated with 1 mg/mL pooled liver S9 fraction (XenoTech), 2 mM NADPH, 1 mM UDPGA, 10 mM MgCl2, 5 mM GSH, and 0.1 mM PAPS at 37 °C for 0, 5, 15, 30, and 60 min. The metabolic stabilities of testosterone (1 μM), verapamil (1 μM), and propranolol (1 μM) were determined in parallel to confirm the enzymatic activity of the S9 fraction. The incubation was stopped by precipitation of S9 enzymes with two volumes of cold acetonitrile containing internal standard (150 nM diphenhydramine). Samples were stored on ice for 10 min, and precipitated protein was removed by centrifugation (15 min, 4 °C, 4000 rpm). The concentration of the remaining test compound at the different time points was analyzed by LC-MS/MS (TSQ Quantum Access MAX, Thermo Fisher, Dreieich, Germany) and used to determine half-life (t1/2).

## Cc1nc(N)sc1-c1csc(Nc2ccc(C(F)(F)F)cc2)n1 [compound 1]
P. falciparum 3D7 [1]; 3D7, 72 h, + IDP (125 μM)
  IC50: 2400 ± 200 nM
P. falciparum 3D7 [1]; 3D7, without IDP
  IC50: 1900 ± 200 nM
[2]
  IC50: 600 to 1700 nM
P. falciparum 3D7 [3]; 95% CI in brackets, read-out: IC50 B
  IC50: 1600 nM
P. falciparum 3D7 [3]; read-out: IC50 3D7-II
  IC50: 1700 ± 600 nM
P. falciparum NF54 [4]
  IC50: 800 ± 100 nM
[5]
  MEP pathway metabolite concentrations upon inhibitor treatment: all downstream metabolites of DXPS are increased
P. falciparum NF54 [6]; NF54, 72 h, + IDP (125 μM)
  IC50: 500 nM
P. falciparum NF54 [6]; NF54, without IDP
  IC50: 800 ± 100 nM
[7]; 1 at 7.65 μM (5× IC50), UNT 1,163, P >0,99999
  DOXP, Mean of + 1: 1,163
[7]; 1 at 7.65 μM, UNT 11,24, P 0,720090
  MEcDP, Mean of + 1: 10,20
[7]; 1 at 7.65 μM, UNT 11,98, P 0,005029
  PEP, Mean of + 1: 5,297
[7]; 1 at 7.65 μM, UNT 13,48, P 0,003896
  GC3P, Mean of + 1: 6,757
[7]; 1 at 7.65 μM, UNT 14,78, P 0,037010
  3PGA, Mean of + 1: 8,127
[7]; 1 at 7.65 μM, UNT 17,23, P 0,044056
  G6P, Mean of + 1: 6,793
[7]; 1 at 7.65 μM, UNT 53,67, P 0,001940
  MAL, Mean of + 1: 23,30
[7]; 1 at 7.65 μM, UNT 61,07, P 0,050194
  2PGA, Mean of + 1: 31,49
[7]; 1 at 7.65 μM, UNT 64,80, P 0,008553
  CIT, Mean of + 1: 25,15
[7]; 1 at 7.65 μM, UNT 0,06667, P 0,587914
  CDP-ME, Mean of + 1: 0,07667
[7]; 1 at 7.65 μM, UNT 90,64, P 0,340281
  S7P, Mean of + 1: 54,93
[7]; 1 at 7.65 μM, UNT 102,5, P 0,030535
  PYR, Mean of + 1: 28,19
[7]; 1 at 7.65 μM, UNT 103,0, P 0,112890
  G1P/F6P, Mean of + 1: 57,13
[7]; 1 at 7.65 μM, UNT 104,2, P 0,388380
  LAC, Mean of + 1: 80,23
[7]; 1 at 7.65 μM, UNT 118,0, P 0,002161
  SUC, Mean of + 1: 60,23
[7]; 1 at 7.65 μM, UNT 0,1667, P 0,032540
  DMADP, Mean of + 1: 0,1033
[7]; 1 at 7.65 μM, UNT 0,2200, P 0,306022
  HDMADP, Mean of + 1: 0,1833
[7]; 1 at 7.65 μM, UNT 0,4233, P 0,070645
  MEP, Mean of + 1: 0,3100
[7]; 1 at 7.65 μM, UNT 1668, P 0,003295
  FUM, Mean of + 1: 727,7
[7]; 1 at 7.65 μM, UNT 1,877, P 0,144422
  ACO, Mean of + 1: 1,140
[7]; 1 at 7.65 μM, UNT 5,757, P 0,038874
  RU5P/RUP, Mean of + 1: 2,520
[8]
  MIC: 5 to 10 µM
[9]
  IC50: 1180 nM
P. falciparum 3D7 [10]
  IC50: 600 ± 200 nM
P. falciparum Dd2
  IC50: 800 ± 400 nM
M. tuberculosis DXPS
  Ki: 210 ± 30 nM
[11]
  half-life at 1 μM: > 4 h
